Here are results for 3 molecules from patent US10870647B2, “Imidazopyridine derivative, method for preparing same, and pharmaceutical composition containing same as active ingredient for preventing or treating cancer” (DAEGU-GYEONGBUK MEDICAL INNOVATION FOUNDATION, priority 2016, dated 2020).

Each structure is given as a SMILES string.

Common to all, as to assay: Kinase selectivity, scanMAX Kinase assay panel (DiscoverX), % control at 1 uM
Common to all, as to assay type: binding

Assay [1] has as its target T1, scanMAX Kinase assay panel (Homo sapiens, UniProt O95819).
T1 construct: purchased DiscoverX
The note with it: MAP4K4; 1 uM; read-out: Percent Control (%). A digest of the protocol:
(§1)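 Single-point screen at 1 uM compound in DMSO. Lower % control means stronger inhibition, with the cutoff for activity set at <35%.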

Assay [2] concerns the target T2, scanMAX Kinase assay panel (Homo sapiens, UniProt Q05655).
T2 construct: purchased DiscoverX
The following applies: PRKCD; 1 uM; read-out: Percent Control (%). A digest of the protocol:
as §1

Assay [3] has as its target T3, scanMAX Kinase assay panel (Homo sapiens, UniProt Q13627).
T3 construct: purchased DiscoverX
The following applies: DYRK1A; 1 uM; read-out: Percent Control (%). An outline of the steps:
as §1

For assay [4], the target named is T4, scanMAX Kinase assay panel (Homo sapiens, UniProt Q6ZN16).
T4 construct: purchased DiscoverX
T4 sequence (Q6ZN16 1-1313): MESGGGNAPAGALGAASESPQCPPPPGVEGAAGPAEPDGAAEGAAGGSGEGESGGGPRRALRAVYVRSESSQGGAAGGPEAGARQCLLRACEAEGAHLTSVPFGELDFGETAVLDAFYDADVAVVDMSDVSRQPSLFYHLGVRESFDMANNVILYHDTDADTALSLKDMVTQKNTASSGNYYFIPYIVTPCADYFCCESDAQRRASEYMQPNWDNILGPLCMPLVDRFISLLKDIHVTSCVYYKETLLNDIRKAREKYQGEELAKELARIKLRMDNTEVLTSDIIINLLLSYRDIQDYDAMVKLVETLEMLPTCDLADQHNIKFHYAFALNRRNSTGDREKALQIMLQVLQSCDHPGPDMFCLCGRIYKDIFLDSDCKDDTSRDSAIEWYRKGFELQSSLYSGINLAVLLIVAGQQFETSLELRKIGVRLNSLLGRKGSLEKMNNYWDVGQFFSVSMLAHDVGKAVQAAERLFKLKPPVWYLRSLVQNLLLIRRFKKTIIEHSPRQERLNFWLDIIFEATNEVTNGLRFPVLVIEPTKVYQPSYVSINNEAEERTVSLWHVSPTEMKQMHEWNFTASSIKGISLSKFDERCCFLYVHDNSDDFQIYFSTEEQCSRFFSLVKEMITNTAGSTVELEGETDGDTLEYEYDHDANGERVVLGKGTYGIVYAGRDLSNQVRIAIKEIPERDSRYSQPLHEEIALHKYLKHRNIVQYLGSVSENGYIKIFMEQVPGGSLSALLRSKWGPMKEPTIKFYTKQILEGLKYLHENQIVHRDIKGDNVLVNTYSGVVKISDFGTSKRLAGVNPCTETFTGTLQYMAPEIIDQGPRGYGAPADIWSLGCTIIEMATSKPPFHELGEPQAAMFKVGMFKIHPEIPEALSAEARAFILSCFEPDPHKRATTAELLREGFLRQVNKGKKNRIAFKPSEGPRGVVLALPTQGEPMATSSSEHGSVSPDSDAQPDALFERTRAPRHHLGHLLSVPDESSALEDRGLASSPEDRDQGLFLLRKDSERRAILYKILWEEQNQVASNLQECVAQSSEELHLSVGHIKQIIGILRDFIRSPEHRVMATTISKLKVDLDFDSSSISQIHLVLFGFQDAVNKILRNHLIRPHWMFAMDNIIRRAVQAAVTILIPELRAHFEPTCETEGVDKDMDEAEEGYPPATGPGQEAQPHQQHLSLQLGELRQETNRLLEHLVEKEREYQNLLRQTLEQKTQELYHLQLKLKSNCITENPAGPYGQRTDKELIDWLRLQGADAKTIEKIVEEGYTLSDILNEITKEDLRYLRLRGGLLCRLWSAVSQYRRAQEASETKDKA
The following applies: MAP3K15; 1 uM; read-out: Percent Control (%). An outline of the steps: as §1

In assay [5] the target is T5, scanMAX Kinase assay panel (Homo sapiens, UniProt Q86UX6).
T5 construct: purchased DiscoverX
The following applies: YANK3; 1 uM; read-out: Percent Control (%). An outline of the steps: as §1

In assay [6] the target is T6, scanMAX Kinase assay panel (Homo sapiens, UniProt Q92630).
T6 construct: purchased DiscoverX
T6 sequence (Q92630 1-601): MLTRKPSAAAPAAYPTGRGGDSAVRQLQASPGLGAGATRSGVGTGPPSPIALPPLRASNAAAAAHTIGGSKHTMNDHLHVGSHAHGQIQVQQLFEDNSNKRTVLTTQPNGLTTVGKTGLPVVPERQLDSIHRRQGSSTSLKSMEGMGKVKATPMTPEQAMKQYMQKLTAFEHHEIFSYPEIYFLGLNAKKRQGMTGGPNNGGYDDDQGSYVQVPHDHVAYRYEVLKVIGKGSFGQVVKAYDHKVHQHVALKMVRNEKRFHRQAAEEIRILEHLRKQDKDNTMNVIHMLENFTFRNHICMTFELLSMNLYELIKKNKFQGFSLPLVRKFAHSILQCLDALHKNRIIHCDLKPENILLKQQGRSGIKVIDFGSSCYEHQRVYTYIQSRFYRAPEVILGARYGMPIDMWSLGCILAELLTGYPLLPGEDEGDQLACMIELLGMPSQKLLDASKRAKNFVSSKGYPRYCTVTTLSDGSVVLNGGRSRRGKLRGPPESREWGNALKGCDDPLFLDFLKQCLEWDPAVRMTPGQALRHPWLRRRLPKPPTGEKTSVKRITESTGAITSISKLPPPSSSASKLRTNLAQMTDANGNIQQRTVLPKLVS
The following applies: DYRK2; 1 uM; read-out: Percent Control (%). An outline of the steps: as §1

T2 sequence (Q05655 whole entry): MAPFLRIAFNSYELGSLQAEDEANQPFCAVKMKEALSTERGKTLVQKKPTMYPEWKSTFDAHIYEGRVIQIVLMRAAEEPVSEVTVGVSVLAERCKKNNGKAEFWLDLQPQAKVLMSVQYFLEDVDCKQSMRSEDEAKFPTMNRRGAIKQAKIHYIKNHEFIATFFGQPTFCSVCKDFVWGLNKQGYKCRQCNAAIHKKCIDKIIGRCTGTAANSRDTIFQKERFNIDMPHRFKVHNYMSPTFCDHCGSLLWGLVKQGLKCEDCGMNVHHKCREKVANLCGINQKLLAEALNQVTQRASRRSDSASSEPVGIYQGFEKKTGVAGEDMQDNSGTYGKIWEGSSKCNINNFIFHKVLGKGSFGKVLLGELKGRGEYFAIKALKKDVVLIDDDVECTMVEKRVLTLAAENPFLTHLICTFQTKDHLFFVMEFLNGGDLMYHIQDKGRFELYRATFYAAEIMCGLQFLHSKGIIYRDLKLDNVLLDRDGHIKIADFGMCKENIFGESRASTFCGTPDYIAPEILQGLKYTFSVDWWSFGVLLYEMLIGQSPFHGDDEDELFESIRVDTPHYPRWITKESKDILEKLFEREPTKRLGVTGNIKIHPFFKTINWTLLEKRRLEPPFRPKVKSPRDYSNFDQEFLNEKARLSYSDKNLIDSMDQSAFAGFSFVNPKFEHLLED
T1 sequence (O95819 whole entry): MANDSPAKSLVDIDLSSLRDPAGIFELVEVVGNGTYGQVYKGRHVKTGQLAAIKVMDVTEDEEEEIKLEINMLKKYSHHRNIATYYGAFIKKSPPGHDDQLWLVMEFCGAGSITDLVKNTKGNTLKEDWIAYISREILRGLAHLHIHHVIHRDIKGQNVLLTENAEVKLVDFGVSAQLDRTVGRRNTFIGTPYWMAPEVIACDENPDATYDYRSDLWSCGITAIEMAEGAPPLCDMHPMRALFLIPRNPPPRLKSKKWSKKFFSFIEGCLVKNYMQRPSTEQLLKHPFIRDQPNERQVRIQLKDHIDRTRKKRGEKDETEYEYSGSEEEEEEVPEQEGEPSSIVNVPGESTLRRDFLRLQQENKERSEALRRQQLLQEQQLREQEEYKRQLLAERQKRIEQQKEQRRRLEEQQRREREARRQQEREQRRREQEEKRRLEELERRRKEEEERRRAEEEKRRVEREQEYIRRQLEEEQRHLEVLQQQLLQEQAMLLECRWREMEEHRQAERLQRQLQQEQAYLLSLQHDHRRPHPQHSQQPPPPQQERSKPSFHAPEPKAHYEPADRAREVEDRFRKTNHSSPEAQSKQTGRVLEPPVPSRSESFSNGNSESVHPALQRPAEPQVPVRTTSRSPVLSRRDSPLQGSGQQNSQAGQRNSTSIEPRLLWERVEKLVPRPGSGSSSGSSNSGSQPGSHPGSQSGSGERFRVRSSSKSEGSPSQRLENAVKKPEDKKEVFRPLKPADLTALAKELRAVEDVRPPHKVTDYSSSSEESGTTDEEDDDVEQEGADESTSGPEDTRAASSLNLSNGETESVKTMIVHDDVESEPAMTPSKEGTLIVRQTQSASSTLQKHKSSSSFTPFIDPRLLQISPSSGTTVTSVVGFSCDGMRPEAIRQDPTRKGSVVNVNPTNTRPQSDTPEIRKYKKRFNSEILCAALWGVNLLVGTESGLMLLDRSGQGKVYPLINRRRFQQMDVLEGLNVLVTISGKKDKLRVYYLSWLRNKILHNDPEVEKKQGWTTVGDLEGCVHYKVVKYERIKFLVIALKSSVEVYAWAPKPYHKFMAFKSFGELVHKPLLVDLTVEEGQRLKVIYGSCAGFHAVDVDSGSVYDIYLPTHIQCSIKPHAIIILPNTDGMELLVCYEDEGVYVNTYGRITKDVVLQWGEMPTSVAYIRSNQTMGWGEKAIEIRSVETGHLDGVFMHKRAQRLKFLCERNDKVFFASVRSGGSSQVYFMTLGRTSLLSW
T5 sequence (Q86UX6 whole entry): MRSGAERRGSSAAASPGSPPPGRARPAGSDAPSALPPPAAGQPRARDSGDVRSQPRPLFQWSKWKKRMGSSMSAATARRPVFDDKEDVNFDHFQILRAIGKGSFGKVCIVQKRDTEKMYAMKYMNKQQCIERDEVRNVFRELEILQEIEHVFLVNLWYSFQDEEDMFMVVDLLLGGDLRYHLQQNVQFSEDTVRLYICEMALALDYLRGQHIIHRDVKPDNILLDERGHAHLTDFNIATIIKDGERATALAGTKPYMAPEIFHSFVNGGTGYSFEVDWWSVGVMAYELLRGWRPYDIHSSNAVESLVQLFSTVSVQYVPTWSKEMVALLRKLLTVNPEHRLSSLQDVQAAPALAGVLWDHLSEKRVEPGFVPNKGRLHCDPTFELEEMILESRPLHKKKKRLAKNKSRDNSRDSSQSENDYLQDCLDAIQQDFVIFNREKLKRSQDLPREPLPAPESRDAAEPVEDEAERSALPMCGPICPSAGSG

`Cc1ccc(C(=O)Nc2ccc(CN3CCN(C)CC3)c(C(F)(F)F)c2)cc1C#Cc1cnc2c(Nc3cnn(C)c3)cccn12` [Example 1, 4-methyl-3-((8-((1-methyl-1H-pyrazol-4-yl)amino)imidazo[1,2-a]pyridin-3-yl)ethynyl)-N-(4-((4-methylpiperazin-1-yl)methyl)-3-(trifluoromethyl)phenyl)benzamide]: the remaining binding at 1 µM came out at 1% in assay [1]; 61% in assay [2]; 100% in assay [3]; 72% in assay [4]; 74% in assay [5]; 75% in assay [6].
`Cc1cn(-c2cc(NC(=O)c3ccc(C)c(C#Cc4cnc5c(Nc6cnn(C)c6)cccn45)c3)cc(C(F)(F)F)c2)cn1` [Example 12, 4-methyl-N-(3-(4-methyl-1H-imidazol-1-yl)-5-(trifluoromethyl)phenyl)-3-((8-((1-methyl-1H-pyrazol-4-yl)amino)imidazo[1,2-a]pyridin-3-yl)ethynyl)benzamide]: the remaining binding at 1 µM was 4% in assay [1]; 81% in assay [2]; 97% in assay [3]; 100% in assay [4]; 81% in assay [5]; 91% in assay [6].
Consider `Cc1ccc(NC(=O)C2(C(=O)Nc3ccc(F)cc3)CC2)cc1C#Cc1cnc2c(Nc3cnn(C(C)C)c3)cccn12` [Example 78], for which the remaining binding at 1 µM in assay [1] is 99%; in assay [2] it was 100%; in assay [3], 100%; in assay [4], 98%; in assay [5], 99%; in assay [6], 94%.
